# Results reported in US7569570B2, “Thienopyrimidines, process for preparing the same and use thereof” (Takeda Pharmaceutical Company Limited, priority 2002, dated 2009).
row,melting point [°C],SMILES
1,240 to 244,"CCNC(=O)Nc1ccc(-c2sc3c(c2CN(C)CCC(=O)NCCOC)c(=O)n(-c2ccccc2)c(=O)n3Cc2c(F)cccc2F)cc1 [Example 95, 3-[{[1-(2,6-difluorobenzyl)-6-(4-{[(ethylamino)carbonyl]amino}phenyl)-2,4-dioxo-3-phenyl-1,2,3,4-tetrahydrothieno[2,3-d]pyrimidin-5-yl]methyl}(methyl)amino]-N-(2-methoxyethyl)propanamide]"
2,210 to 212,"CCNC(=O)Nc1ccc(-c2sc3c(c2CN(C)C2CCCCC2)c(=O)n(-c2ccccc2)c(=O)n3Cc2c(F)cccc2F)cc1 [Example 91, N-{4-[5-{[cyclohexyl(methyl)amino]methyl}-1-(2,6-difluorobenzyl)-2,4-dioxo-3-phenyl-1,2,3,4-tetrahydrothieno[2,3-d]pyrimidin-6-yl]phenyl}-N′-ethylurea]"
3,232 to 235,CCNC(=O)Nc1ccc(-c2sc3c(c2CN(C)CCOC)c(=O)n(-c2ccc(OCCNS(C)(=O)=O)cc2)c(=O)n3Cc2c(F)cccc2F)cc1 [Example 106]
4,210 to 211,"CCNC(=O)Nc1ccc(-c2sc3c(c2CN(C)CCN2CCCS2(=O)=O)c(=O)n(-c2ccccc2)c(=O)n3Cc2c(F)cccc2F)cc1 [Example 86, N-[4-(1-(2,6-difluorobenzyl)-5-([[2-(1,1-dioxo-2-isothiazolidinyl)ethyl](methyl)amino]methyl}-2,4-dioxo-3-phenyl-1,2,3,4-tetrahydrothieno[2,3-d]pyrimidin-6-yl)phenyl]-N′-ethylurea]"
5,210 to 213,"CCNC(=O)Nc1ccc(-c2sc3c(c2CN(C)C2CCCC2)c(=O)n(-c2ccccc2)c(=O)n3Cc2c(F)cccc2F)cc1 [Example 93, N-{4-[5-{[cyclopentyl(methyl)amino]methyl}-1-(2,6-difluorobenzyl)-2,4-dioxo-3-phenyl-1,2,3,4-tetrahydrothieno[2,3-d]pyrimidin-6-yl]phenyl}-N′-ethylurea]"
6,215 to 218,CCNC(=O)Nc1ccc(-c2sc3c(c2CN(C)CCOC)c(=O)n(-c2ccc(OCCOC)cc2)c(=O)n3Cc2c(F)cccc2F)cc1 [Example 104]
7,189 to 190,CCNC(=O)Nc1ccc(-c2sc3c(c2CN(C)C[C@H]2CCCN2S(C)(=O)=O)c(=O)n(-c2ccccc2)c(=O)n3Cc2c(F)cccc2F)cc1 [Example 85]
8,204 to 206,CCNC(=O)Nc1ccc(-c2sc3c(c2CN(C)CCN2CCCC2=O)c(=O)n(-c2ccc(F)cc2)c(=O)n3Cc2c(F)cccc2F)cc1 [Example 33]
9,236 to 239,"CCNC(=O)Nc1ccc(-c2sc3c(c2CN(C)CCOC)c(=O)n(-c2ccc(NC(=O)NCC)cc2)c(=O)n3Cc2c(F)cccc2F)cc1 [Example 99, N-[4-(3-(4-{(ethylamino)carbonylamino}phenyl)-1-(2,6-difluorobenzyl)-5-{[2-methoxyethyl(methyl)amino]methyl}-2,4-dioxo-1,2,3,4-tetrahydrothieno[2,3-d]pyrimidin-6-yl)phenyl]-N′-ethylurea]"
10,203 to 204,CCNC(=O)Nc1ccc(-c2sc3c(c2CN(C)Cc2ccccn2)c(=O)n(-c2ccccc2)c(=O)n3Cc2c(F)cccc2F)cc1 [Example 113]
11,243 to 244,CCNC(=O)Nc1ccc(-c2sc3c(c2CN(C)Cc2ccccn2)c(=O)n(-c2ccc(F)cc2)c(=O)n3Cc2c(F)cccc2F)cc1 [Example 114]
12,260 to 265,CCNC(=O)Nc1ccc(-c2sc3c(c2CN(C)CCOC)c(=O)n(-c2ccc(O)cc2)c(=O)n3Cc2c(F)cccc2F)cc1 [Example 103]
13,237 to 239,CCNC(=O)Nc1ccc(-c2sc3c(c2CN(C)CCC(=O)NC)c(=O)n(-c2ccc(F)cc2)c(=O)n3Cc2c(F)cccc2F)cc1 [Example 30]
14,208 to 209,"CCNC(=O)Nc1ccc(-c2sc3c(c2CN(C)CC(=O)OCC)c(=O)n(-c2ccccc2)c(=O)n3Cc2c(F)cccc2F)cc1 [Example 5, ethyl[{[1-(2,6-difluorobenzyl)-6-(4-{[(ethylamino)carbonyl]amino}phenyl)-2,4-dioxo-3-phenyl-1,2,3,4-tetrahydrothieno[2,3-d]pyrimidin-5-yl]methyl}(methyl)amino]acetate]"
15,228 to 231,"CCNC(=O)Nc1ccc(-c2sc3c(c2CN(C)CCOCCOC)c(=O)n(-c2ccccc2)c(=O)n3Cc2c(F)cccc2F)cc1 [Example 109, N-[4-(1-(2,6-difluorobenzyl)-5-{[[2-(2-methoxyethoxy)ethyl](methyl)amino]methyl}-2,4-dioxo-3 phenyl-1,2,3,4-tetrahydrothieno[2,3-d]pyrimidin-6-yl)phenyl]-N′-ethylurea]"
16,212 to 215,"CCNC(=O)Nc1ccc(-c2sc3c(c2CN(C)CCOC)c(=O)n(-c2ccc(OCCOC(C)=O)cc2)c(=O)n3Cc2c(F)cccc2F)cc1 [Example 107, 2-[4-(1-(2,6-difluorobenzyl)-6-(4-{[(ethylamino)carbonyl]amino}phenyl)-5-([(2-methoxyethyl(methyl)amino)methyl]-2,4-dioxo-1,2,3,4-tetrahydrothieno[2,3-d]pyrimidin-3(2H)-yl}phenoxy)ethyl acetate]"
17,236 to 238,CCNC(=O)Nc1ccc(-c2sc3c(c2CN(C)CCOC)c(=O)n(-c2ccc(OCCO)cc2)c(=O)n3Cc2c(F)cccc2F)cc1 [Example 108]
18,206 to 208,"CCNC(=O)Nc1ccc(-c2sc3c(c2CN(C)CCOC)c(=O)n(-c2ccc(OCCOC)c(OCCOC)c2)c(=O)n3Cc2c(F)cccc2F)cc1 [Example 101, N-[4-(3-[3,4-bis(2-methoxyethoxy)phenyl]-1-(2,6-difluorobenzyl)-5-{[(2-methoxyethyl)(methyl)amino]methyl}-2,4-dioxo-1,2,3,4-tetrahydrothieno[2,3-d]pyrimidin-6-yl)phenyl]-N′-ethylurea]"
19,205 to 207,"CCNC(=O)Nc1ccc(-c2sc3c(c2CN(C)CCOC)c(=O)n(-c2ccc(N)cc2)c(=O)n3Cc2c(F)cccc2F)cc1 [Example 97, N-[4-(3-(4-aminophenyl)-1-(2,6-difluorobenzyl)-5-{[2-methoxyethyl(methyl)amino]methyl}-2,4-dioxo-1,2,3,4-tetrahydrothieno[2,3-d]pyrimidin-6-yl)phenyl]-N′-ethylurea]"
20,230 to 233,"CCNC(=O)Nc1ccc(-c2sc3c(c2CN(C)CCOCCOCC)c(=O)n(-c2ccccc2)c(=O)n3Cc2c(F)cccc2F)cc1 [Example 111, N-[4-(1-(2,6-difluorobenzyl)-5-[{[2-(2-ethoxy)ethoxy]ethyl(methyl)amino}methyl]-2,4-dioxo-3-phenyl-1,2,3,4-tetrahydrothieno[2,3-d]pyrimidin-6-yl)phenyl]-N′-ethylurea]"
21,189 to 191,CCNC(=O)Nc1ccc(-c2sc3c(c2CN(C)C[C@@H]2CCCN2S(C)(=O)=O)c(=O)n(-c2ccccc2)c(=O)n3Cc2c(F)cccc2F)cc1 [Example 84]
